The values below come from ChEMBL document CHEMBL3044861, “Synthesis and Herbicidal Activity of New 2-(1-Carbamoyl-1, 2, 4-triazol-3-ylsulfonyl) alkanoates” (J Pestic Sci, 2002).

Data set [1] deals with Echinochloa oryzicola. In words: Herbicidal activity against Echinochloa oryzicola assessed as killing at 25 g/ha pre-emergence application under paddy conditions. The class given is functional.
Data set [2] is described as follows: Herbicidal activity against broadleaf weed assessed as killing at 50 g/ha pre-emergence application under paddy conditions. Type of data set: functional.
Data set [3] concerns Echinochloa oryzicola. Briefly: Herbicidal activity against Echinochloa oryzicola assessed as killing pre-emergence application under paddy conditions. Type of data set: functional.
Data set [4] has as its system Echinochloa oryzicola. In words: Herbicidal activity against Echinochloa oryzicola assessed as killing at 50 g/ha pre-emergence application under paddy conditions. Type of data set: functional.
In data set [5] the test system is Oryza sativa. Briefly: Toxicity in Oryza sativa (rice) assessed as injury at 25 g/ha pre-emergence application under paddy conditions by crop safety assay. Type of data set: organism-based. The note with it: in vivo, other.
The test system of data set [6] is Schoenoplectiella juncoides. In words: Herbicidal activity against Schoenoplectiella juncoides assessed as killing at 25 g/ha pre-emergence application under paddy conditions. Type of data set: functional.
The subject of data set [7] is Pontederia vaginalis. Briefly: Herbicidal activity against Monochoria vaginalis assessed as killing at 50 g/ha pre-emergence application under paddy conditions. Type of data set: functional.
Data set [8] is described as follows: Octanol-water partition coefficient, log K of the compound. Type of data set: physicochemical. The settings on record: read-out: log K.
In data set [9] the test system is Pontederia vaginalis. In words: Herbicidal activity against Monochoria vaginalis assessed as killing at 25 g/ha pre-emergence application under paddy conditions. Type of data set: functional.
Data set [10] has as its system Oryza sativa. In words: Toxicity in Oryza sativa (rice) assessed as injury at 50 g/ha pre-emergence application under paddy conditions by crop safety assay. Type of data set: organism-based. The settings on record: in vivo, other.
The nature of data set [11]: Herbicidal activity against broadleaf weed assessed as killing at 25 g/ha pre-emergence application under paddy conditions. Type of data set: functional.
Data set [12] has as its system Schoenoplectiella juncoides. In words: Herbicidal activity against Schoenoplectiella juncoides assessed as killing at 50 g/ha pre-emergence application under paddy conditions. The class given is functional.
Another data set concerns Chenopodium album. Briefly: Herbicidal activity against Chenopodium album assessed as killing at 500 g/ha pre-emergence application upland paddy conditions measured after 14 days. Type of data set: functional.
The test system of a further data set is Echinochloa crus-galli. Briefly: Herbicidal activity against Echinochloa crus-galli (barnyard grass) assessed as killing at 500 g/ha pre-emergence application upland paddy conditions measured after 14 days. The class given is functional.
The test system of the next data set is Zea mays. Briefly: Herbicidal activity against Zea mays (maize)assessed as killing at 500 g/ha pre-emergence application upland paddy conditions measured after 14 days. Type of data set: functional.
The next data set deals with Digitaria ciliaris. Briefly: Herbicidal activity against Digitaria ciliaris assessed as killing at 500 g/ha pre-emergence application upland paddy conditions measured after 14 days. Type of data set: functional.

As for `CCN(CC)C(=O)n1cnc(S(=O)(=O)C(CC(C)C)C(=O)OCC(C)C)n1` (stereo unspecified), the Activity in the data set on Echinochloa oryzicola [1] turned out to be 40%; in [2] it was 60%; with Echinochloa oryzicola [4], 80%; in the data set on Oryza sativa [5], 10%; in data set [6] it was 30%; in the data set on Pontederia vaginalis [7], 100%. Moreover, the Activity was determined as 40% with Pontederia vaginalis [9], 10% in the data set on Oryza sativa [10], 30% in [11] and 100% in data set [12]. Also, in the data set on Echinochloa oryzicola [3], the “log(1/ED80)” value is 0.91. Besides, the logP in [8] is 1.03.
Turning to `CCCCCOC(=O)C(CC(C)C)S(=O)(=O)c1ncn(C(=O)N(CC)CC)n1` (stereo unspecified), the Activity stood at 40% with Echinochloa oryzicola [1]; 60% in [2]; 40% in the data set on Echinochloa oryzicola [4]; 10% with Oryza sativa [5]; 10% in [6]; 10% in the data set with Pontederia vaginalis [7]. The Activity in the data set on Pontederia vaginalis [9] was determined as 10%; in the data set with Oryza sativa [10] it was 10%; in data set [11], 30%; in data set [12], 40%. Further, the “log(1/ED80)” value in the data set on Echinochloa oryzicola [3] turned out to be 0.62. Besides, in data set [8], the logP was found to be 1.18.
Regarding `CCOC(=O)C(CC(C)C)S(=O)(=O)c1ncn(C(=O)N(CC)CC)n1` (stereo unspecified), the Activity is 90% with Echinochloa oryzicola [1]; 60% in [2]; 100% in the data set on Echinochloa oryzicola [4]; 10% with Oryza sativa [5]; 30% in data set [6]; 90% in the data set on Pontederia vaginalis [7]. For the same molecule, the Activity was 40% in the data set with Pontederia vaginalis [9], 10% in the data set with Oryza sativa [10], 50% in data set [11] and 90% in [12]. Further, the “log(1/ED80)” value in the data set with Echinochloa oryzicola [3] came out at 1.27. In addition, the logP in [8] is 0.78.
Turning to `CCN(CC)C(=O)n1cnc(S(=O)(=O)c2c(C)cc(C)cc2C)n1` [CAFENSTROLE], the Activity with Echinochloa oryzicola [1] was 100%; in [2], 100%; in the data set with Echinochloa oryzicola [4] it was 100%; in the data set on Chenopodium album it was 100%; in the data set on Echinochloa crus-galli, 90%; in the data set on Oryza sativa [5], 10%. For the same molecule, the Activity stood at 90% in data set [6]; 100% in the data set with Pontederia vaginalis [7]; 100% in the data set on Pontederia vaginalis [9]; 10% in the data set on Oryza sativa [10]; 60% with Zea mays; 90% in data set [11]. Besides, the Activity in data set [12] is on record as 100%; in the data set with Digitaria ciliaris, 90%.
As to `CCN(CC)C(=O)n1cnc(S(=O)(=O)C(CC(C)C)C(=O)OC(C)(C)C)n1` (stereo unspecified), the Activity in the data set with Echinochloa oryzicola [1] turned out to be 30%; in [2] it was 10%; with Echinochloa oryzicola [4] it was 90%; in the data set on Oryza sativa [5], 10%; in [6], 10%; with Pontederia vaginalis [7], 10%. Moreover, the Activity (in the data set with Pontederia vaginalis [9]; in the data set with Oryza sativa [10]; in data set [11]; in data set [12]) was 10% in each case. Further, in the data set with Echinochloa oryzicola [3], the “log(1/ED80)” value came out at 1. In addition, the logP in data set [8] is 0.99.
Regarding `CCCCOC(=O)C(CC(C)C)S(=O)(=O)c1ncn(C(=O)N(CC)CC)n1` (stereo unspecified), the Activity worked out at 100% in the data set on Echinochloa oryzicola [1]; 80% in data set [2]; 100% in the data set with Echinochloa oryzicola [4]; 10% in the data set on Oryza sativa [5]; 100% in [6]; 100% in the data set on Pontederia vaginalis [7]. The Activity with Pontederia vaginalis [9] turned out to be 90%; in the data set with Oryza sativa [10] it was 10%; in [11] it was 60%; in data set [12] it was 100%. Moreover, the “log(1/ED80)” value in the data set with Echinochloa oryzicola [3] is 1.3. The logP in data set [8] turned out to be 1.04.
With `CCN(CC)C(=O)n1cnc(S(=O)(=O)C(CC(C)C)C(=O)OC)n1` (stereo unspecified), the Activity stood at 100% in the data set with Echinochloa oryzicola [1]; 100% in data set [2]; 100% in the data set with Echinochloa oryzicola [4]; 100% in the data set on Chenopodium album; 100% in the data set with Echinochloa crus-galli; 10% in the data set on Oryza sativa [5]. The Activity in data set [6] was found to be 80%; with Pontederia vaginalis [7] it was 100%; in the data set with Pontederia vaginalis [9], 50%; with Oryza sativa [10], 10%; in the data set with Zea mays, 40%; in data set [11], 70%. Besides, the Activity (in data set [12]; with Digitaria ciliaris) was 100% each time. In addition, the “log(1/ED80)” value in the data set with Echinochloa oryzicola [3] is 1.26. The logP in data set [8] is 0.68.
With `CCC(CC)C(C(=O)OC)S(=O)(=O)c1ncn(C(=O)N(CC)CC)n1` (stereo unspecified), the Activity in data set [2] is 90%; with Echinochloa oryzicola [4], 100%; in the data set on Chenopodium album, 90%; in the data set with Echinochloa crus-galli, 100%; in the data set with Pontederia vaginalis [7], 100%; with Oryza sativa [10] it was 10%. Further, the figures for the Activity (in the data set with Zea mays; in [12]; with Digitaria ciliaris) were 30%, 80% and 90%, respectively. The “log(1/ED80)” value with Echinochloa oryzicola [3] is 1.4. Besides, in [8], the logP is 0.76.
Take `CCC(C)C(C(=O)OC)S(=O)(=O)c1ncn(C(=O)N(CC)CC)n1` (stereo unspecified): the Activity in data set [2] amounted to 80%; in the data set with Echinochloa oryzicola [4] it was 100%; in the data set with Chenopodium album, 100%; with Echinochloa crus-galli, 90%; in the data set with Pontederia vaginalis [7], 60%; in the data set on Oryza sativa [10] it was 10%. The Activity in the data set on Zea mays amounted to 40%; in data set [12] it was 90%; in the data set on Digitaria ciliaris, 100%. Also, in the data set with Echinochloa oryzicola [3], the “log(1/ED80)” value is 0.95. The logP in data set [8] was 0.66.
Consider `CCCOC(=O)C(CC(C)C)S(=O)(=O)c1ncn(C(=O)N(CC)CC)n1` (stereo unspecified), for which the Activity amounted to 90% in the data set with Echinochloa oryzicola [1]; 100% in data set [2]; 100% in the data set with Echinochloa oryzicola [4]; 10% in the data set on Oryza sativa [5]; 70% in data set [6]; 100% in the data set with Pontederia vaginalis [7]. Further, the Activity amounted to 60% in the data set with Pontederia vaginalis [9], 10% in the data set on Oryza sativa [10], 60% in data set [11] and 100% in data set [12]. The “log(1/ED80)” value with Echinochloa oryzicola [3] worked out at 1.41. In data set [8], the logP was 0.9.
`CCCCC(C(=O)OC)S(=O)(=O)c1ncn(C(=O)N(CC)CC)n1` (stereo unspecified): the Activity in [2] came out at 30%; in the data set on Echinochloa oryzicola [4], 90%; in the data set with Chenopodium album it was 100%; with Echinochloa crus-galli, 90%; with Pontederia vaginalis [7], 40%; with Oryza sativa [10], 10%. In addition, the values for the Activity (in the data set on Zea mays; in [12]; in the data set on Digitaria ciliaris) were 50%, 10% and 90%, respectively. For the same molecule, the “log(1/ED80)” value in the data set on Echinochloa oryzicola [3] came out at 0.9. For the same molecule, in [8], the logP is 0.69.
Regarding `CCN(CC)C(=O)n1cnc(S(=O)(=O)CC(=O)OC)n1`, the Activity in data set [2] was found to be 10%; with Echinochloa oryzicola [4], 10%; with Chenopodium album, 30%; with Echinochloa crus-galli it was 40%; with Pontederia vaginalis [7], 10%; with Oryza sativa [10], 10%. For the same molecule, the Activity is reported as 10% in the data set on Zea mays, 10% in data set [12] and 50% in the data set with Digitaria ciliaris. Besides, the “log(1/ED80)” value with Echinochloa oryzicola [3] turned out to be 0.18. In addition, the logP in data set [8] turned out to be 0.36.
